Where two headings read alike, the source gives them in different places.

Holding throughout (type): cell-based, human
The subject of experiment [1] is Target C. Kind of experiment: RT-qPCR splicing assay panel, Target C canonical junction (CJ) mRNA. The note with it: Homo sapiens; Table 5 panel; canonical junction qPCR; compound concentration having 50% response in CJ decrease; read-out: Target C IC50 (decrease in CJ mRNA levels). The method, boiled down: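 A673 cells (DMEM/10% FBS) or K562 cells (IMDM/10% FBS) were treated 24 h at 37° C. with 11-point 3-fold dilutions (top 10 uM, ≤0.25% DMSO). Canonical-junction mRNA was quantified in lysates by RT-qPCR, normalized to GAPDH, GUSB or PPIA.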
For orientation: Quantitative PCR measures a nucleic acid by following its amplification.

Experiment [2] concerns Target C. Kind of experiment: HiBiT protein abundance assay, Target C (Promega Nano-Glo HiBiT Lytic Detection System, knock-in K562 cell line). The note with it: Homo sapiens, K562, 24 h, HiBiT K562 cell line, 24 hours, top dose 10 μM; read-out: Effect on protein abundance, Target C (IC50 category). In outline:
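Protein abundance was read by Nano-Glo HiBiT lytic luminescence after 24 h compound exposure (10-point, threefold series from 10 μM final) of HiBiT knock-in K562 cells. Parental K562 served as baseline; the 50%-abundance concentration was interpolated from a four-parameter logistic fit.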
In general terms: The HiBiT peptide binds its large partner to form an active luciferase.

Experiment [3] deals with MYB mRNA. Kind of experiment: RT-qPCR splicing assay, MYB canonical junction (CJ) and alternative junction (AJ) mRNA. The note with it: Homo sapiens; for AC50: increase in MYB alternative junction (AJ) mRNA, read-out: MYB AJ AC50. In outline: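 Read-out is one-step RT-qPCR on cell lysates detecting the exon-exon junction of each isoform, normalized to a housekeeping gene (PPIA in A673, GAPDH or GUSB in K562).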

Where [4] appears, read: Table 5 panel, canonical junction qPCR, compound concentration having 50% response in CJ decrease, read-out: MYB IC50 (decrease in CJ mRNA levels).
[5] abbreviates: decrease in MYB canonical junction (CJ) mRNA, RT-qPCR, read-out: MYB CJ IC50.

A word on the IC50: it is the concentration that inhibits the measured activity by half. In general, AC50 refers to the midpoint of the concentration-response curve, whichever way the signal moves. For `Cc1cn2nc(-c3cc4ccn([C@H]5CCNC5)c(=O)c4cc3O)cc(C)c2n1` [Compound 641, 6-(2,8-dimethylimidazo[1,2-b]pyridazin-6-yl)-7-hydroxy-2-[(3S)-pyrrolidin-3-yl]isoquinolin-1-one], the half-maximal inhibitory concentration (IC50) in experiment [1] is 1000 to 10000 nM; in experiment [2], 100 to 1000 nM; in experiment [3] (setting [4]), below 100 nM; in experiment [3] (setting [5]) it was 100 to 1000 nM. Moreover, the AC50 in experiment [3] (RT-qPCR) is below 100 nM.

For `Cc1cn2cc(-c3cc(F)c4c(=O)n([C@@H]5C[C@@H](C)N[C@@H](C)C5)ccc4c3)cc(F)c2n1` [Compound 642, 2-[(2S,6R)-2,6-dimethyl-4-piperidyl]-8-fluoro-6-(8-fluoro-2-methyl-imidazo[1,2-a]pyridin-6-yl)isoquinolin-1-one], the IC50 in experiment [1] lay in the range of 1000 to 10000 nM; in experiment [2] it was 1000 to 10000 nM; in experiment [3] (setting [4]) it was 100 to 1000 nM; in experiment [3] (setting [5]), 100 to 1000 nM. Further, in experiment [3] (RT-qPCR), the AC50 lay within 100 to 1000 nM.

Take `Cc1cn2cc(-c3cc(F)c4c(=O)n([C@H]5CNC[C@@H]5F)ccc4c3)cc(F)c2n1` [Compound 644]: the IC50 in experiment [1] is above 10000 nM; in experiment [2], above 10000 nM; in experiment [3] (setting [4]), 100 to 1000 nM; in experiment [3] (setting [5]) it was 1000 to 10000 nM. Moreover, the AC50 in experiment [3] (RT-qPCR) fell in the range of 100 to 1000 nM.

`Cc1cn2nc(-c3cc(N)c4c(=O)n([C@H]5CCNC5)ccc4c3)cc(C)c2n1` [Compound 645, 8-amino-6-(2,8-dimethylimidazo[1,2-b]pyridazin-6-yl)-2-[(3S)-pyrrolidin-3-yl]isoquinolin-1-one]: the 50% inhibitory concentration (IC50) is above 10000 nM in experiment [1], above 10000 nM in experiment [2], 1000 to 10000 nM in experiment [3] (setting [4]) and 1000 to 10000 nM in experiment [3] (setting [5]). For the same compound, the AC50 in experiment [3] (RT-qPCR) was 1000 to 10000 nM.

On to `Cc1cn2nc(-c3cc(N)c4c(=O)n([C@@H]5CCNC5)ccc4c3)cc(C)c2n1` [Compound 646, 8-amino-6-(2,8-dimethylimidazo[1,2-b]pyridazin-6-yl)-2-[(3R)-pyrrolidin-3-yl]isoquinolin-1-one], for which the half-maximal inhibitory concentration (IC50) in experiment [1] is above 10000 nM; in experiment [2], above 10000 nM; in experiment [3] (setting [4]), above 10000 nM; in experiment [3] (setting [5]), 1000 to 10000 nM. Also, in experiment [3] (RT-qPCR), the AC50 was above 10000 nM.

`CNc1cc(-c2cc(C)c3nc(C)cn3n2)cc2ccn([C@H]3CCNC3)c(=O)c12` [Compound 647, 6-(2,8-dimethylimidazo[1,2-b]pyridazin-6-yl)-8-(methylamino)-2-[(3S)-pyrrolidin-3-yl]isoquinolin-1-one]: the 50% inhibitory concentration (IC50) in experiment [1] is above 10000 nM; in experiment [2], above 10000 nM; in experiment [3] (setting [4]) it was 1000 to 10000 nM; in experiment [3] (setting [5]), 1000 to 10000 nM. The half-maximal activity concentration (AC50) in experiment [3] (RT-qPCR) was 1000 to 10000 nM.

On to `CNc1cc(-c2cc(C)c3nc(C)cn3n2)cc2ccn([C@@H]3CCNC3)c(=O)c12` [Compound 648, 6-(2,8-dimethylimidazo[1,2-b]pyridazin-6-yl)-8-(methylamino)-2-[(3R)-pyrrolidin-3-yl]isoquinolin-1-one], for which the IC50 in experiment [1], in experiment [2], in experiment [3] (setting [4]) and in experiment [3] (setting [5]) was above 10000 nM each time. In addition, in experiment [3] (RT-qPCR), the AC50 is above 10000 nM.

In the case of `CC(=O)Nc1cc(-c2cc(C)c3nc(C)cn3n2)cc2ccn([C@H]3CCNC3)c(=O)c12` [Compound 649, N-[6-(2,8-dimethylimidazo[1,2-b]pyridazin-6-yl)-1-oxo-2-[(3S)-pyrrolidin-3-yl]-8-isoquinolyl]acetamide], the 50% inhibitory concentration (IC50) in experiment [1] was above 10000 nM; in experiment [2], 1000 to 10000 nM; in experiment [3] (setting [4]), 1000 to 10000 nM; in experiment [3] (setting [5]), 1000 to 10000 nM. In addition, the concentration at half-maximal activity (AC50) in experiment [3] (RT-qPCR) is 1000 to 10000 nM.

In the case of `CC(=O)Nc1cc(-c2cc(C)c3nc(C)cn3n2)cc2ccn([C@@H]3CCNC3)c(=O)c12` [Compound 650, N-[6-(2,8-dimethylimidazo[1,2-b]pyridazin-6-yl)-1-oxo-2-[(3R)-pyrrolidin-3-yl]-8-isoquinolyl]acetamide], the half-maximal inhibitory concentration (IC50) in experiment [1], in experiment [2], in experiment [3] (setting [4]) and in experiment [3] (setting [5]) was above 10000 nM throughout. Besides, the AC50 in experiment [3] (RT-qPCR) is above 10000 nM.

In the case of `Cc1cn2cc(-c3cc(F)c4c(=O)n(C5CC(C)NC(C)C5)ccc4c3)cc(F)c2n1` (centres unmarked) [Compound 651], the 50% inhibitory concentration (IC50) in experiment [1] was 100 to 1000 nM; in experiment [2], 100 to 1000 nM; in experiment [3] (setting [4]), below 100 nM; in experiment [3] (setting [5]), below 100 nM. Besides, the concentration at half-maximal activity (AC50) in experiment [3] (RT-qPCR) is below 100 nM.

Consider `Cc1cn2cc(-c3cc(F)c4c(=O)n([C@H]5CNC[C@H]5C)ccc4c3)cc(F)c2n1` [Compound 652, 8-fluoro-6-(8-fluoro-2-methyl-imidazo[1,2-a]pyridin-6-yl)-2-[(3R,4R)-4-methylpyrrolidin-3-yl]isoquinolin-1-one], for which the half-inhibitory concentration (IC50) is above 10000 nM in experiment [1], above 10000 nM in experiment [2], 1000 to 10000 nM in experiment [3] (setting [4]) and 1000 to 10000 nM in experiment [3] (setting [5]). Further, in experiment [3] (RT-qPCR), the half-maximal activity concentration (AC50) lay within 1000 to 10000 nM.

For the compound `Cc1cn2cc(-c3cc(F)c4c(=O)n([C@@H]5CNC[C@@H]5C)ccc4c3)cc(F)c2n1` [Compound 653, 8-fluoro-6-(8-fluoro-2-methyl-imidazo[1,2-a]pyridin-6-yl)-2-[(3S,4S)-4-methylpyrrolidin-3-yl]isoquinolin-1-one], the concentration for half-maximal inhibition (IC50) was above 10000 nM in experiment [1], above 10000 nM in experiment [2], 1000 to 10000 nM in experiment [3] (setting [4]) and 1000 to 10000 nM in experiment [3] (setting [5]). Besides, the half-maximal activity concentration (AC50) in experiment [3] (RT-qPCR) is 1000 to 10000 nM.

Regarding `Cn1cc2cc(-c3ncc4c(=O)n(C5CCNCC5)ccc4n3)c(O)c(F)c2n1` [Compound 1123], the IC50 in experiment [1] is 100 to 1000 nM; in experiment [2] it was below 100 nM; in experiment [3] (setting [4]), below 100 nM; in experiment [3] (setting [5]), below 100 nM. In addition, the AC50 in experiment [3] (RT-qPCR) was below 100 nM.
